The values below come from patent US20260242438A1 (INSTITUTE OF MATERIA MEDICA, CHINESE ACADEMY OF MEDICAL …, priority 2022, published 2026).

*1 amine or outer side, *2 acyl side, *3 side chain or, on linkers, in order; H or OH if unused. Where a SMILES comes first, the peptide text is derived from it. Bridges are numbered along the chain shown (N, C = ends). The star is where a group is joined. pNA = O=[N+]([O-])c1ccc(N*)cc1; Suc = O=C(CCC(=O)[*:2])[*:1]

One experiment relates to Normal ICR mice. The experiment is described as follows: In vivo hypoglycemic activity, subcutaneous administration. As to conditions: for Glucose (mean ± sd): subcutaneous, 0.9 mg/kg. On the procedure:
Tail tip blood samples were collected at 40 min and 90 min after administration, and blood glucose levels were measured using glucose oxidase method to calculate blood glucose values at each blood sampling time point.

Experiment [1] deals with T1, chymotrypsin (Bos taurus, UniProt P00766). The experiment is described as follows: Determination of the Michaelis constant Km of chymotrypsin hydrolyzing AAPFpNA. The format is biochemical. As to conditions: R^2=0.9988, pH 7.8, 37° C. On the procedure:
(1) Added a total 198 μL of reaction buffer (20 mM CaCl2, 50 mM Tris-HCl (pH 7.8)) into the 96 well plate, followed by preheating at 37° C. for 15 min. Then added 2 μL of different concentrations of substrates (p-Nitroanilide, pNA, 0.5% in DMSO), and mixed by centrifugation at 500 rpm for 1 min. Finally, the plate was incubated at 37° C. for 20 min, and the absorbance value at 405 nm was measured. In the 200 μL of reaction system, the final concentrations of pNA were 0, 0.025, 0.05, 0.075, 0.1, 0.125, 0.15, 0.25, and 0.3 mM, respectively. Make three repetitions for each concentration and plot the OD 405 nm value with pNA concentration to obtain the standard curve. (2) Added a total 190 μL of reaction buffer (20 mM CaCl2, 50 mM Tris-HCl (pH 7.8)) and 8 μL of 0.75 μM chymotrypsin into the 96 well plate, followed by preheating at 37° C. for 5 min. Then added 2 μL of different concentrations of substrates (AAPFpNA, dissolved in DMSO), and mixed by centrifugation at 500 rpm for 1 min. Finally, the plate was incubated at 37° C. for 20 min, and the absorbance value at 405 nm was measured. In the 200 μL of reaction system, the final concentrations of AAPFpNA were 0, 0.125, 0.25, 0.285, 0.33, 0.4, and 0.5 mM, respectively. […]
Using a certain concentration of chymotrypsin to catalyze different concentrations of AAPFpNA to produce pNA, and the absorbance value of OD 405 nm was measured.

The target of experiment [2] is T1, chymotrypsin. The experiment in a line: Determination of enzyme inhibitory activity against chymotrypsin (substrate AAPFpNA, OD 405 nm). The format is biochemical.

Take “lispro: insulin analogue lispro synthesized in the present invention”: in the experiment with Normal ICR mice (subcutaneous administration, compared with a positive control), the “hypoglycemic activity (in words)” value is recorded as “good hypoglycemic activity”. Besides, the “Glucose (mean ± sd)” value came out at 96.7 ± 24.8 mg/dL in the experiment with Normal ICR mice (0 min), 70.3 ± 6.2 mg/dL in the experiment on Normal ICR mice (40 min) and 72.9 ± 15.6 mg/dL in the experiment with Normal ICR mice (90 min).
Usually Km stands for the concentration of substrate that gives half-maximal velocity. With `C[C@H](NC(=O)CCC(=O)O)C(=O)N[C@@H](C)C(=O)N1CCC[C@H]1C(=O)N[C@@H](Cc1ccccc1)C(=O)Nc1ccc([N+](=O)[O-])cc1` [AAPFpNA, N-succinyl-Ala-Ala-Pro-Phe-p-nitroaniline] (Suc-AAPF-pNA), on chymotrypsin [1], the Km turned out to be 380 µM.
In general, Ki refers to a measure of affinity in units of concentration, obtained from inhibition or displacement. Read a high Ki as weaker binding. As usually defined, the IC50 is the concentration that inhibits the measured activity by half. Turning to `CC[C@H](C)[C@@H]1NC(=O)[C@H](CO)NC(=O)[C@H](Cc2ccc(O)cc2)NC(=O)[C@H]([C@@H](C)O)NC(=O)[C@@H](NC(=O)[C@H](C)N)CSSC[C@@H](C(=O)N[C@@H](Cc2ccccc2)C(=O)O)NC(=O)[C@H](CCCCN)NC(=O)[C@H](C)NC(=O)[C@@H]2CCCN2C1=O` [CH18] (H-ACTYSIPAKCF-OH; disulfide 2-10; C-terminus assumed), the affinity at chymotrypsin [2] corresponds to a Ki of 200 nM. The IC50 at chymotrypsin [2] (chymotrypsin 30 nM, AAPFpNA 0.5 mM, pH 7.8, 37° C.) amounted to 470 nM. Besides, at chymotrypsin [2] (peptide 0.001 μM, read-out: Residual activity of chymotrypsin), the remaining activity at 0.001 µM was found to be 103.6 ± 0.2%. In addition, the remaining activity at 0.01 µM on chymotrypsin [2] (peptide 0.01 μM, read-out: Residual activity of chymotrypsin) stood at 102 ± 3.7%. Also, the remaining activity at 0.1 µM at chymotrypsin [2] (peptide 0.1 μM, read-out: Residual activity of chymotrypsin) stood at 102 ± 2.4%. Further, the remaining activity at 0.2 µM on chymotrypsin [2] (peptide 0.2 μM, read-out: Residual activity of chymotrypsin) was found to be 90.3 ± 4.1%. Besides, on chymotrypsin [2] (peptide 0.5 μM, read-out: Residual activity of chymotrypsin), the remaining activity at 0.5 µM came to 49.4 ± 3.7%. The remaining activity at 2.5 µM on chymotrypsin [2] (peptide 2.5 μM, read-out: Residual activity of chymotrypsin) stood at 3.7 ± 0.5%. At chymotrypsin [2] (peptide 10 μM, read-out: Residual activity of chymotrypsin), the remaining activity at 10 µM turned out to be 3.4 ± 0.5%. The remaining activity at 100 µM on chymotrypsin [2] (peptide 100 μM, read-out: Residual activity of chymotrypsin) stood at 0.3 ± 0.1%. Besides, on chymotrypsin [2] (peptide 1000 μM, read-out: Residual activity of chymotrypsin), the remaining activity at 1000 µM turned out to be 0.1 ± 0.1%.
